Assay results as given in patent US8034314B2, “Photoreactive compound specifically binding to calcium binding proteins” (priority 2004, dated 2011).

Key:
[1] = molecular target: T1, ryanodine receptor (RyR) / Ca2+-release channel (Oryctolagus cuniculus, UniProt P11716); assay: [3H]ryanodine binding to SR membranes; parameters: species or system rabbit
T1 construct: from tissue; host or cells: rabbit fast twitch skeletal muscle SR membranes
Procedure: (§1) Sarcoplasmic reticulum (SR) membranes were prepared from rabbit fast twitch skeletal muscle as described by Saito [Saito et al.: J. Cell Biol. 99 (1984) 875-85]. Mitochondria were isolated from rat liver as described by us previously [Gincel D. et al.: Biochem J. 358 (2001) 147-55]. VDAC was purified by a method developed in our laboratory, using columns of hydroxyapatite and reactive red agarose [Gincel D. et al.: J. Bioenerget. Biomembr. 32 (2000) 571-83].
For the determination of [^3H]ryanodine binding, SR membranes were incubated for 20-60 min at 37° C. in a standard binding solution containing 1M NaCl, 20 mM MOPS (pH 7.4), 50 μM free Ca^2+ and 20 nM [^3H]ryanodine. Unbound ryanodine was separated from protein-bound ryanodine by vacuum filtration of the sample through nitrocellulose filters (0.45 μm), followed by two washes with 4 ml ice-cold buffer containing 0.2 M NaCl, 10 mM MOPS (pH 7.4) and 50 μM CaCl2. The retained radioactivity in the dried filters was determined by liquid scintillation counting. Specific binding of [^3H]ryanodine was defined as the difference between the binding in the presence of 20 nM [^3H]ryanodine and in the presence of 20 μM unlabeled ryanodine.
The hexavalent RuR and the trivalent Ru360 have been employed in various studies as inhibitors of Ca^2+-dependent reactions. As shown here, even with no photoactivation, AzRu, in contrast to RuR and Ru360, was effective in inhibiting the SR Ca^2+-pump (Table 3). […] This may open the way to inhibit other Ca^2+-dependent activities that are not sensitive to RuR, such as the plasma membrane Ca^2+-ATPase. […] RuR was employed to improve mitochondrial production in ischemic reperfused pig myocardium, was employed in the nervous system to follow neuronal death progress and can act as an anti-oxidant in certain conditions. Considering the potent activity of AzRu in RuR-insensitive reactions (see Table 3), its applications in various biological studies should be explored. Ca^2+ accumulation in SR and mitochondria was assayed as described above in the absence and presence of different concentrations of RuR (0.05-100 μM), Ru360 (0.01-100 μM) or AzRu (0.1-100 μM). The concentration required for 50% inhibition (IC50) was derived from the plot of Ca^2+ accumulation activity or ryanodine binding as a function of the reagent concentration. The results are the mean±SEM of 3 to 5 experiments (Table 3).

VDAC = molecular target: T2, VDAC (Rattus norvegicus, UniProt Q9Z2L0); assay: VDAC channel conductance in planar lipid bilayer; type: biochemical
T2 construct: VDAC was purified by a method developed in our laboratory, using columns of hydroxyapatite and reactive red agarose; from tissue; host or cells: mitochondria
Procedure: as §1
Reconstitution of purified VDAC into planar lipid bilayer (PLB), single channel current recording, and data analysis were carried out as described in above mentioned publication.
VDAC is a channel protein which transports Ca^2+ across the mitochondrial outer membrane. […] Purified VDAC was reconstituted into a planar lipid bilayer as multichannels. The channel activity was measured as the ions passed the current across the bilayer in response to a voltage gradient of 10 mV, as a function of time. In the absence of AzRu, VDAC is stable in a long-lived, fully opened state and remains open for up to 2 hours of recording. However, addition of AzRu to the same channel induced VDAC closure, in a time-dependent manner. Ca^2+, in the presence of 1 M NaCl, prevented the inhibitory effect of AzRu on VDAC activity.

CaMKII-dependent GAPDH = CaMKII-dependent GAPDH activity; type: biochemical; details: AzRu 20 μM; mean ± SEM
Catalase = molecular target: T3, Catalase (Bos taurus, UniProt P00432); assay: Catalase activity; type: biochemical, bovine; details: AzRu 100 μM; mean ± SEM
T3 construct: bovine liver catalase; purchased Sigma; host or cells: bovine liver
Excerpt: Unlabelled ryanodine was obtained from Calbiochem. […] Ruthenium chloride was purchased from Aldrich.

T1 sequence (P11716 whole entry): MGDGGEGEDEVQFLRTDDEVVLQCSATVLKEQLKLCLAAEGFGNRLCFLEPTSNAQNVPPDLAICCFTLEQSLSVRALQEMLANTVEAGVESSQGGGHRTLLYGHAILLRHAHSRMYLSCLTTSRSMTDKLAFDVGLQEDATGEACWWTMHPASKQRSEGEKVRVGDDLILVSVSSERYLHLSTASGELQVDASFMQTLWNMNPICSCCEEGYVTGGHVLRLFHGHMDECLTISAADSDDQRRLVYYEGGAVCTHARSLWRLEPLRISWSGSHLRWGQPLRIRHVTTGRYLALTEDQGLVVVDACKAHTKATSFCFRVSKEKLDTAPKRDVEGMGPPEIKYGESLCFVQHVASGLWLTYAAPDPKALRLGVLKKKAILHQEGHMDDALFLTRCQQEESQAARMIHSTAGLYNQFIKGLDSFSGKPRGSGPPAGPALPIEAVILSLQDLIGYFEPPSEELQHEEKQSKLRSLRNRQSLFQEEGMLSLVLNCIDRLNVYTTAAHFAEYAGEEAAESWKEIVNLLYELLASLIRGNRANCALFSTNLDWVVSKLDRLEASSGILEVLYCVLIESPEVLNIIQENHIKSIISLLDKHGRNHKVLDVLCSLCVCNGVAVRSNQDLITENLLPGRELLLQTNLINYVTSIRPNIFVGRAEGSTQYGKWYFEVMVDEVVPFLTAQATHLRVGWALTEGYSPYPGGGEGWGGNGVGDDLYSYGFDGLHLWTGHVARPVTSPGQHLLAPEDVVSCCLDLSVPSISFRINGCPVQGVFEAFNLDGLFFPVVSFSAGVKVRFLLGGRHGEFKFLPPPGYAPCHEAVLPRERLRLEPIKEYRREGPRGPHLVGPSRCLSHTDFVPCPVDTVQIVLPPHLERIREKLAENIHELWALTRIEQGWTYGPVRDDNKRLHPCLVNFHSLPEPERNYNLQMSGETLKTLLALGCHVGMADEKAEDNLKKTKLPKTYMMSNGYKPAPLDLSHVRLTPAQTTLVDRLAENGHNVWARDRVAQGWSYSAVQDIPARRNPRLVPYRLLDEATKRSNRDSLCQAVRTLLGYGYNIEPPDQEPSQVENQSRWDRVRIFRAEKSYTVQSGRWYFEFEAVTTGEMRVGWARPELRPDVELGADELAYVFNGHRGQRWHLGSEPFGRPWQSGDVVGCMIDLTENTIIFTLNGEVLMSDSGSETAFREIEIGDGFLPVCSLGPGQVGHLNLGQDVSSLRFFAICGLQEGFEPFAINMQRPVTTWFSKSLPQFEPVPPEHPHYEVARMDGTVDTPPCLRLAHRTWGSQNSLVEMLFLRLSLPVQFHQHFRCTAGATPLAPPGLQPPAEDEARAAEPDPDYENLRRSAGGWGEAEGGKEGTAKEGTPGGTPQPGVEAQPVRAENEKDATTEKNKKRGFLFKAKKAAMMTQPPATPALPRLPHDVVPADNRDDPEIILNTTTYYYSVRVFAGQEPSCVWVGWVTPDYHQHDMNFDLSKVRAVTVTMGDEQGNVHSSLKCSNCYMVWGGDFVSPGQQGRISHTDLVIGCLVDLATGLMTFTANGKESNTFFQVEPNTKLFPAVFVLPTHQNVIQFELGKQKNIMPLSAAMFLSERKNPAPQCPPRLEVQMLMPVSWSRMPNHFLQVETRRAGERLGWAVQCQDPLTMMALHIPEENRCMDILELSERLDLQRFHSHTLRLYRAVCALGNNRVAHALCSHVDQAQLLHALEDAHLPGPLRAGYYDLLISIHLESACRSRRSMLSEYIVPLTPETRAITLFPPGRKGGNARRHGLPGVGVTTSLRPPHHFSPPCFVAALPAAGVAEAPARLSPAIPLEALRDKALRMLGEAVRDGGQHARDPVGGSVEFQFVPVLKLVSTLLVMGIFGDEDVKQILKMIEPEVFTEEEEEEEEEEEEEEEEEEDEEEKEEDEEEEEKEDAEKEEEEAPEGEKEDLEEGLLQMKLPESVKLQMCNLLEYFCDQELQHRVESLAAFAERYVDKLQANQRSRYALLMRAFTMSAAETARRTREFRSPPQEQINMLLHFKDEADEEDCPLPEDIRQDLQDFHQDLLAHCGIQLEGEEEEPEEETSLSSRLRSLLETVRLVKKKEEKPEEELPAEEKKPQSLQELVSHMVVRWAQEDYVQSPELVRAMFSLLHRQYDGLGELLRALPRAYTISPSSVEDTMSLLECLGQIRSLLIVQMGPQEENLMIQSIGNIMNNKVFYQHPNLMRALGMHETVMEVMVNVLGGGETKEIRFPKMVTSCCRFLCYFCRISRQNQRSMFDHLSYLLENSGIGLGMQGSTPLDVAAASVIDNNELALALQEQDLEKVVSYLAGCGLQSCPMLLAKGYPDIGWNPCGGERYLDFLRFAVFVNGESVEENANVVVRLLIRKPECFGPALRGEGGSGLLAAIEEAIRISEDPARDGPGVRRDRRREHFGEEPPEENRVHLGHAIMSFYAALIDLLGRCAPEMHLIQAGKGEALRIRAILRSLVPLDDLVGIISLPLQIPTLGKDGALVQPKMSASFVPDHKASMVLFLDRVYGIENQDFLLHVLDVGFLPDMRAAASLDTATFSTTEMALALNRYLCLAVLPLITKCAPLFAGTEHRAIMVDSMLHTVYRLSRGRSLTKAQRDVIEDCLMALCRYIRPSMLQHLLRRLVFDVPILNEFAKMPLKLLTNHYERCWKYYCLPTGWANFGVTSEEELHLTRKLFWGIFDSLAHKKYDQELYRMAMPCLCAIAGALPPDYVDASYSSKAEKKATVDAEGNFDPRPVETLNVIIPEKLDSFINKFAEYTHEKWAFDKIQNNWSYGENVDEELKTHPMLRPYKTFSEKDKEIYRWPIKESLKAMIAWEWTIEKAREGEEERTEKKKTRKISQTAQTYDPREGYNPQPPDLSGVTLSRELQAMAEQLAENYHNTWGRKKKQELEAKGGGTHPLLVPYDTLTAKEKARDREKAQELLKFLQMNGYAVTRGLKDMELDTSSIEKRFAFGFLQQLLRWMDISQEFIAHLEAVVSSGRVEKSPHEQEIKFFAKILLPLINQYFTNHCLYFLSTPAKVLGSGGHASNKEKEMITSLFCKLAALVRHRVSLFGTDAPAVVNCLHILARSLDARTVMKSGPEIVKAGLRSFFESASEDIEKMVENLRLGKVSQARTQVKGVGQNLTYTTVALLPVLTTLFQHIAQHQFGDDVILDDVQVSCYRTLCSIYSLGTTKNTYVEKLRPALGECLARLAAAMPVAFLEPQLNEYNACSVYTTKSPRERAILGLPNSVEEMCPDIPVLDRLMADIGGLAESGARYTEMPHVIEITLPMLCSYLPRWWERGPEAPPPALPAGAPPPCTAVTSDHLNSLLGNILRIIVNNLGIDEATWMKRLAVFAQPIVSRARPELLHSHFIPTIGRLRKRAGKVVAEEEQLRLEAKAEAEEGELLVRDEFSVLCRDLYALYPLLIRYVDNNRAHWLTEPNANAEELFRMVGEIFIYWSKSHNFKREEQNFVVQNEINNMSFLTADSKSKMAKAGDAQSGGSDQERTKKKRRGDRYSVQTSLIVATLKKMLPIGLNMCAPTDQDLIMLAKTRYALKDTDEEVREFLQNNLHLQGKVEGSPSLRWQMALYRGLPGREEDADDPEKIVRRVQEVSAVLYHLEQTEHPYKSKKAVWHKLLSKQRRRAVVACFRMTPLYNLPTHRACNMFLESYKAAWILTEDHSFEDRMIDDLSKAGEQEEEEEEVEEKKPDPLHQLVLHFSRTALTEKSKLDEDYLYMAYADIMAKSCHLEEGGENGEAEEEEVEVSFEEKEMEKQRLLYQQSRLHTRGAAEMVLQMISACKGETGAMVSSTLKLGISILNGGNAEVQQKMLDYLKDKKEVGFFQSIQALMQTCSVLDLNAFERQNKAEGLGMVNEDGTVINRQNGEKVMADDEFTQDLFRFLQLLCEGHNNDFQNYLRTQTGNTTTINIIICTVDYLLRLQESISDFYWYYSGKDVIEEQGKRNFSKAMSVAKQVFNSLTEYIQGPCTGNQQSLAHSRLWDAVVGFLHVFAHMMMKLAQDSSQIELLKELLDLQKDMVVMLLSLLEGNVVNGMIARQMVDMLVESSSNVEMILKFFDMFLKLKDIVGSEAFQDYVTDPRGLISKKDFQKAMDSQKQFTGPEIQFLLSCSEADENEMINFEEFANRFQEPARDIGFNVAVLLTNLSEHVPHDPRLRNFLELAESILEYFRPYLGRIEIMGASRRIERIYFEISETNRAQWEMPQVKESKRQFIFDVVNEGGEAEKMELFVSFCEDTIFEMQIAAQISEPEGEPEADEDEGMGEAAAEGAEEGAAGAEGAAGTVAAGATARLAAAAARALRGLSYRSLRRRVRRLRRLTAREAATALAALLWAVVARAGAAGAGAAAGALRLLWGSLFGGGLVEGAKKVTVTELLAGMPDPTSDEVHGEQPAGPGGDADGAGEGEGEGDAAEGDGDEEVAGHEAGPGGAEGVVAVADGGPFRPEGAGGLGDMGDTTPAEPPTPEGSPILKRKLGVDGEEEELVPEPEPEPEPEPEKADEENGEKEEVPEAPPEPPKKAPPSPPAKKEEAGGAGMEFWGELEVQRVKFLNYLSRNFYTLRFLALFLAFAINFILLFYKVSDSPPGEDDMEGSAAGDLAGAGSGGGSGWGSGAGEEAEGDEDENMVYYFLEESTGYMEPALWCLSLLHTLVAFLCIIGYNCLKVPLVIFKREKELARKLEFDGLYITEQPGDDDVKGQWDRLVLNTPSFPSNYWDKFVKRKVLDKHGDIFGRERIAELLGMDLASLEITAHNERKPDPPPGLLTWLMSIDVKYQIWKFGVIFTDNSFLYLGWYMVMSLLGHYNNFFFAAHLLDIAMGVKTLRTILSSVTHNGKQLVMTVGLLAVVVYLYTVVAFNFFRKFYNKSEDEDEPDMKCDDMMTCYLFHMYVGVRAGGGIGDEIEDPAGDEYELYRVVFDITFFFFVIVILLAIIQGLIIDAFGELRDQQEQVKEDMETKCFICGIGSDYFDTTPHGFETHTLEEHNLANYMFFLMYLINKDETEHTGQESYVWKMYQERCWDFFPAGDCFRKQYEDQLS

Substance: azido-ruthenium [AzRu]
- IC50 ([1]; +UV (photoactivation), mean ± SEM): 1.21 ± 0.06 µM
- Activity (% of control), Ryanodine binding by SR RyR ([1]; AzRu 20 μM, mean ± SEM): 18 ± 6 % of control
- Effect on binding of ryanodine to SR membranes ([1]; FIG. 8): strongly inhibited
- IC50 ([1]; no UV, mean ± SEM of 3 to 5 experiments): 2.9 ± 0.17 µM
- Activity (% of control), VDAC conductance (VDAC; AzRu 20 μM, mean ± SEM): 19 ± 5 % of control
- Effect on VDAC conductance in multi-channel experiments (VDAC; all voltages tested): decreased VDAC conductance
- Effect on VDAC channel activity (VDAC; purified VDAC in planar lipid bilayer, voltage gradient 10 mV): inhibited the channel activity of VDAC
- Activity (% of control), CaMKII-dependent GAPDH (CaMKII-dependent GAPDH): 6 ± 2 % of control
- Activity (% of control), Catalase (Catalase): 118 ± 8 % of control
